Data: patent US20060263802A1 (priority 2003, published 2006)

Experiments:
Format in all cases: binding
[1] = test system: human monoclonal antibody CR57
[2] = test system: human monoclonal antibody CR57; remark: listed apart in the source
[3] = test system: human monoclonal antibody CRJB
[4] = test system: human monoclonal antibody CRJA
[5] = test system: human monoclonal antibody CR57; remark: listed apart in the source
[6] = test system: human monoclonal antibody CRJA; remark: listed apart in the source
[7] = test system: human monoclonal antibody CRJB; remark: listed apart in the source

Sequence | binding of CR57 to 12-, 10- and 8-mer peptides [1] | also measured
KLCGVLGLRLMD | bound | –
ACKLKLCGVL | bound | –
GACKLKLCGVLG | bound | –
KLKLCGVLGL | bound | –
ACKLKLCGVLGL | bound | –
KLCGVLGL | bound | –
CKLKLCGVLGLR | bound | –
LKLCGVLG | bound | –
KLKLCGVL | bound | –
CKLKLCGVLG | bound | –
LKLCGVLGLR | bound | –
KGACKLKLCGVL | bound | –
KGACKLKLCGVLGLR | – | Binding of CR57 (10 μg/ml) to looped/cyclic peptide (PEPSCAN-ELISA) [2]: 78; Binding of CRJB (10 μg/ml) to looped/cyclic peptide (PEPSCAN-ELISA) [3]: 60; Binding of CRJA (10 μg/ml) to looped/cyclic peptide (PEPSCAN-ELISA) [4]: 50; Binding of CR57 to linear peptide (PEPSCAN-ELISA signal) [5]: 181; binding of antibody CR57 to linear peptide (PEPSCAN OD) [5]: bound; Binding of CRJA to linear peptide (PEPSCAN-ELISA signal) [6]: 50; Binding of CRJB to linear peptide (PEPSCAN-ELISA signal) [7]: 111
